Results on one compound are retold here after patent US9568483B2, “Molecular subtyping, prognosis and treatment of prostate cancer” (CORNELL UNIVERSITY, priority 2011, dated 2017).

Entries after “also recorded” stand apart in the source; their conditions may differ.

In data set [1] the test system is LNCaP-n-Myc cells. Briefly: WST-1 viability assay, LNCaP cells stably transfected with MYCN. It counts as cell-based. The conditions noted are these: compared to control LNCaP cells (LNCaP-EV); 72 hours; FIG. 4A. As to the method:
(§1) Drug Treatment. PHA-739358 was obtained from Nerviano Medical Sciences (Milan, Italy) in powder form (MW 414.36). Prostate cell lines for this study were obtained from the American Type Culture Collection (Manassas, Va.). RWPE (20×10^3 per well), NCI-H660 (20×10^3), DU145 (5×10^3 per well), VCaP (20×10^3 per well) and LNCaP (1.5×10^4 per well) cells were seeded on 96-well-tissue culture plates. At 24 hours, cell lines were treated with vehicle (0.5% DMSO) or escalating doses of PHA-739358 (5 nM, 50 nM, 100 nM, 500 nM, 1 uM, 5 uM). At 48 hr, 72 h, 96 h, and 120 h, viability was assessed by performing WST-1 assay (Roche, Indianapolis, Ind.) reading absorbance at 450 nm according to the manufacturer's instructions. Xenografts were prepared by injection of 1 million NCI-H660 cells, VCaP cells, or LNCaP cells into NU/J mice (Jackson Laboratories, Bar Harbor, Me.). LTL-362 xenografts were established at BC Cancer Center Living Tumor Laboratory as previously described (TUNG et al., Prostate (2010)). 3×3×2 mm2 tissue fragments were subcutaneously engrafted into fourteen 6-8 week old NOD/SCID mice. All xenograft tumors were allowed to grow to an average tumor weight of 100 mm^3. […] Mice were sacrificed on day 17, and tumors were evaluated for weight, gross pathology, histology, and IHC. […]
For orientation: Tetrazolium assays rely on reduction of a dye to a coloured formazan, in cell work by metabolically active cells.

Data set [2] has as its system VCaP xenografts. In words: VCaP xenograft study. The settings on record: 30 mg/kg intraperitoneal, days 1-5. It counts as in vivo, NU/J mice. The method, then: as §1, with “(2010)).” for “(2010)). 3×3×2 mm2 tissue fragments were subcutaneously engrafted into fourteen 6-8 week old NOD/SCID mice. All xenograft tumors were allowed to grow to an average tumor weight of 100 mm^3.”
(§2) Xenografts. […] Mice were sacrificed on day 17, and tumors were evaluated for weight, gross pathology, histology, and IHC. […] Analysis was performed using LivingImage software (Xenogen) by measurement of the average photon flux (measured in photons/s/cm2/steradian) within a region of interest.

Data set [3] relates to LNCaP-MYCN cells. In words: Cell cycle FACS analysis, LNCaP-MYCN. The settings on record: 48 hrs treatment. The data set is classed as cell-based. As to the method:
(§3) Cell Cycle Analysis. Cells were treated with PHA-739358 for 48 hrs. After treatment, cells were washed with cold PBS and fixed in 70% EtOH at −20° C. overnight. Cells were washed and suspended in 500 μl PBS containing 0.1% Triton X-100, 20 μg/ml Propidium Iodide (PI) and 200 μg/ml RNase A, incubated for 30 min at room temperature and subjected to FACS analysis using a LSR II Analyzer (BD Biosciences).
On the technique in general: In flow cytometry, cells or beads pass a laser one at a time.

For data set [4], the system named is NCI-H660 cells. Briefly: WST-1 viability assay, NCI-H660. The data set is classed as cell-based, human. The settings on record: compared to two PCA cell lines (DU145, VCaP) and benign RWPE-1 cells; 72 hours; FIG. 4B. The method, then: as §1
In data set [5] the test system is NCI-H660 cells. In words: Cell cycle FACS analysis, NCI-H660. The data set is classed as cell-based, human. The conditions noted are these: 48 hrs treatment. The method, then:
as §3

The test system of data set [6] is LTL-352 xenograft. Briefly: LTL-352 xenograft study. The conditions noted are these: LTL-352 xenografts; 30 mg/kg IP BID, 5 days; P<0.001. The data set is classed as in vivo, NOD/SCID mice. The method, then:
as §1, with “(2010)).” for “(2010)). 3×3×2 mm2 tissue fragments were subcutaneously engrafted into fourteen 6-8 week old NOD/SCID mice. All xenograft tumors were allowed to grow to an average tumor weight of 100 mm^3.”
as §2

For data set [7] the following is noted: mouse, in vivo, ip, 30 mg/kg. The method, then:
as §1, with “(2010)).” for “(2010)). 3×3×2 mm2 tissue fragments were subcutaneously engrafted into fourteen 6-8 week old NOD/SCID mice. All xenograft tumors were allowed to grow to an average tumor weight of 100 mm^3.”
as §2

For data set [8], the system named is NCI-H660 xenografts. In words: NCI-H660 xenograft study. The data set is classed as in vivo, NU/J mice. As to the method:
Drug Treatment. PHA-739358 was obtained from Nerviano Medical Sciences (Milan, Italy) in powder form (MW 414.36). Prostate cell lines for this study were obtained from the American Type Culture Collection (Manassas, Va.). RWPE (20×10^3 per well), NCI-H660 (20×10^3), DU145 (5×10^3 per well), VCaP (20×10^3 per well) and LNCaP (1.5×10^4 per well) cells were seeded on 96-well-tissue culture plates. At 24 hours, cell lines were treated with vehicle (0.5% DMSO) or escalating doses of PHA-739358 (5 nM, 50 nM, 100 nM, 500 nM, 1 uM, 5 uM). At 48 hr, 72 h, 96 h, and 120 h, viability was assessed by performing WST-1 assay (Roche, Indianapolis, Ind.) reading absorbance at 450 nm according to the manufacturer's instructions. Xenografts were prepared by injection of 1 million NCI-H660 cells, VCaP cells, or LNCaP cells into NU/J mice (Jackson Laboratories, Bar Harbor, Me.). LTL-362 xenografts were established at BC Cancer Center Living Tumor Laboratory as previously described (TUNG et al., Prostate (2010)). 3×3×2 […] tissue fragments were subcutaneously engrafted into fourteen 6-8 week old NOD/SCID mice. All xenograft tumors were allowed to grow to an average tumor […] of 100 mm^3. 20 LNCaP, 20 VCaP, 40 NCI-H660, 14 LTL-362 mice were randomized to treatment with PHA-739358 at 30 mg/kg intraperitoneal dosing on days 1-5 or vehicle. Body weight, tumor volume based on caliper measurements ([…]) and luciferase imaging were performed every 3 or 4 days after treatment. Mice were sacrificed on day 17, and tumors were evaluated for weight, gross pathology, histology, and IHC. Three tumors were processed during treatment (on day 4) to evaluate for phosphorylated histone 3 expression by IHC.
(§4) Immunohistochemistry (IHC). […] IHC was quantified on scale 0-3 and overexpression was defined as any staining intensity seen of target cells above background (similar methodology as was used in PARK et al., Neoplasia, 12:590-8 (2010)).
(§5) Xenografts. […] Mice were sacrificed on day 17, and tumors were evaluated for weight, gross pathology, histology, and IHC. […]

Data set [9] concerns LNCaP xenografts. In words: LNCaP xenograft study. It counts as in vivo, NU/J mice. As to the method:
as §1, with “Me.).” for “Me.). LTL-362 xenografts were established at BC Cancer Center Living Tumor Laboratory as previously described (TUNG et al., Prostate (2010)). 3×3×2 mm2 tissue fragments were subcutaneously engrafted into fourteen 6-8 week old NOD/SCID mice. All xenograft tumors were allowed to grow to an average tumor weight of 100 mm^3.”
as §4, §5

The subject of data set [10] is LNCaP cells. Briefly: Cell cycle FACS analysis, LNCaP. The conditions noted are these: 48 hrs treatment. The data set is classed as cell-based. As to the method: as §3

For the compound `CO[C@@H](C(=O)N1Cc2n[nH]c(NC(=O)c3ccc(N4CCN(C)CC4)cc3)c2C1)c1ccccc1` [PHA-739358], the “in vitro sensitivity (viability)” value in data set [1] is reported as “enhanced in vitro sensitivity”. In addition, the “effect on tumor size” value in data set [2] was “cytostatic effect”; in data set [9] (LNCaP xenografts, 30 mg/kg IP BID, 5 days) it was “no effect”. Further, the Polyploidy result in data set [3], in data set [5] and in [10] was “induced” each time. The G2/M arrest result in [3] (FIG. 5) is recorded as “dose dependent G2/M arrest”; in [5] (FIG. 5), “no significant G2/M arrest”; in data set [10] (FIG. 5), “dose dependent G2/M arrest”. Moreover, in data set [4], the “sensitivity (viability)” value is listed as “enhanced sensitivity”. In addition, the average tumor shrinkage in [6] was 50-87%; in [8] (NCI-H660 xenografts, 30 mg/kg IP BID, 5 days, P<0.001), 50-87%. Moreover, in data set [7], the “toxicity as determined by body weight” value is on record as “without significant toxicity”. Besides, the “SYP (synaptophysin) expression (IHC)” value in data set [8] (treated NCI-H660 xenografts, FIG. 4F) is reported as “negative; also recorded: completely suppressed”. Moreover, the “Phosphorylated histone 3 expression (IHC)” value in [8] (treated NCI-H660 xenografts, day 4 of treatment) was “significantly inhibited”; in data set [9] (treated LNCaP xenografts, day 4 of treatment), “not in the LNCaP xenografts”.
